Test results from patent publication US9931347B2, “Pharmaceutical compound” (IOmet Pharma Ltd., priority 2013, dated 2018).

Tests used:
[1] = target: T1, TDO (A172 human glioblastoma cells) (Homo sapiens, UniProt P48775); assay: A172 Kynurenine cell based assay; conditions: 500 μM L-tryptophan, 48 hours, kynurenine by Erhlich's reagent
T1 construct: This assay utilised cancer cells which expressed either TDO or IDO; endogenous in cells; host or cells: A172 human glioblastoma cells
Method in brief: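 A172 glioblastoma cells (30,000/well) cultured at 37° C. in phenol red-free RPMI with 10% FCS, 2 mM L-glutamine and 500 μM L-tryptophan, with or without test compound. After 48 hours, kynurenine in the supernatant was read with Erhlich's reagent (5 min) as absorbance at 490 nm.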

[2] = target: T2, IDO (SKOV3 human ovarian adenocarcinoma cells, IFN-γ induced) (Homo sapiens, UniProt P14902); assay: SKOV3 Kynurenine cell based assay; conditions: IDO induced by 500 ng/ml IFN-γ, 500 μM L-tryptophan, 48 hours
T2 construct: IDO expression was induced in the SKOV3 cells by the addition of 500 ng/ml IFN-γ; endogenous in cells; host or cells: SKOV3 human ovarian adenocarcinoma cells, induced with IFN-γ
Method in brief: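 IFN-γ (500 ng/ml) induced IDO in SKOV3 cells, seeded at 40,000/well in phenol red-free RPMI with 10% FCS, 2 mM L-glutamine and 500 μM L-tryptophan. Cells were incubated with or without compound at 37° C for 48 h. Supernatant kynurenine was detected with Ehrlich's reagent.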

[3] = target: Recombinant human IDO (Homo sapiens, UniProt P14902); assay: hIDO biochemical coupled assay; conditions: 45 μM L-tryptophan, coupled with kynurenine formamidase
Method in brief: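 Recombinant human IDO incubated in 50 mM KPO4 (pH 7.0), 0.5 mM EGTA, 0.5 mM EDTA, 0.05% Triton X100, 20 mM ascorbate, 10 μM methylene blue, 500 U/ml catalase and 50 μg/ml kynurenine formamidase. N-formylkynurenine converted to kynurenine, quantified by fluorescence after Ehrlich's reagent.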

[4] = target: Recombinant human TDO (Homo sapiens, UniProt P48775); assay: hTDO biochemical coupled assay; conditions: 330 μM L-tryptophan, coupled with kynurenine formamidase
Experimental: Exemplary compounds of the invention were prepared, and tested to determine their effect as TDO and/or IDO inhibitors. Two different assays were employed: 1. a cell-based assay for detecting the effect of test compounds on kynurenine production in two different cancer cell types. This assay utilised cancer cells which expressed either TDO or IDO and as such was used as a means of testing compound activity at these two enzymes in a cell-based context. 2. a TDO and IDO biochemical coupled assay which utilised recombinantly produced and purified TDO and IDO enzymes in combination with the enzyme formamidase. This coupled enzyme system allowed conversion of N-formylkynurenine produced by TDO or IDO activity to kynurenine which was then quantified by fluorescence following addition of Erhlich's Reagent The protocols for these are set out below.
Recombinant human IDO or TDO was incubated in 50 mM KPO4 (pH 7.0), 0.5 mM EGTA, 0.5 mM EDTA, 0.05% Triton™ X100, 20 mM ascorbate, 10 μM methylene blue, 500 U/ml catalase, 50 μg/ml KynB (kynurenine formamidase). TDO assays were carried out in the presence of 330 μM L-tryptophan, while IDO assays had the addition of 45 μM L-tryptophan. After incubation for 17 minutes at room temperature the reactions were stopped by the addition of Erhlich's reagent and incubated at room temperature for 5 minutes before the fluorescence was read (Ex475, Em530).

Sequence of Recombinant human TDO (P48775 whole entry): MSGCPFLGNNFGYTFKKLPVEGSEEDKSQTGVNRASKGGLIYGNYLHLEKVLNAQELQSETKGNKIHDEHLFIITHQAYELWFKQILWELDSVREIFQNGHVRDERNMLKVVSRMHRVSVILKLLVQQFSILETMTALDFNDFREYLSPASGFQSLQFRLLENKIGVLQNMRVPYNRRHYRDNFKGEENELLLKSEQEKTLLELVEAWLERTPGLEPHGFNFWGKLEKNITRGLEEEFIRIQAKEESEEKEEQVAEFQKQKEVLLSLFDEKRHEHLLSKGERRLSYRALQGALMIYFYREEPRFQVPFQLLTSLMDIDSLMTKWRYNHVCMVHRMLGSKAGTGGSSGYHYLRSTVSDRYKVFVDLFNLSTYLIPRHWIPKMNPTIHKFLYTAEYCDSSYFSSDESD
T1 sequence (P48775 whole entry): as above
T2 sequence (P14902 whole entry): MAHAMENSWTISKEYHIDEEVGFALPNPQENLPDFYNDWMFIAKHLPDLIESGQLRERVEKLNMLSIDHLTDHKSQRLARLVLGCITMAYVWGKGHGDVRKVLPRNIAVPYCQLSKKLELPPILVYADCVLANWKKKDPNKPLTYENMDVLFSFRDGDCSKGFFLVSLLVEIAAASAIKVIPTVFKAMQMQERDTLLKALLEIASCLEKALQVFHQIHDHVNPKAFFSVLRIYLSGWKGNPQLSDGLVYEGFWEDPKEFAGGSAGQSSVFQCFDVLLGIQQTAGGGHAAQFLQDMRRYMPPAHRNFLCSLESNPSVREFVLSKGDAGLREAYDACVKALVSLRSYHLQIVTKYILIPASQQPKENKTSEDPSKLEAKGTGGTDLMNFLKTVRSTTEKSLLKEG
Sequence of Recombinant human IDO (P14902 whole entry): as above

A172 Kynurenine cell based assay pIC50 [1]	SKOV3 Kynurenine cell based assay pIC50 [2]	hIDO biocehmical assay pIC50 [3]	hTDO biochemical assay pIC50 [4]	SMILES
++ (++ = pIC50 5.00-5.99)	+ (+ = pIC50 4.00-4.99)	+− (+− = pIC50 <4.00)	++ (++ = pIC50 5.00-5.99)	CC(=O)N1CC=C(c2c[nH]c3cc(F)c(F)cc23)CC1 [Compound 167]
+ (+ = pIC50 4.00-4.99)	+− (+− = pIC50 <4.00)	+− (+− = pIC50 <4.00)	+− (+− = pIC50 <4.00)	O=C(c1ccccc1)N1CCC(c2c[nH]c3ccccc23)CC1 [Compound 82]
+ (+ = pIC50 4.00-4.99)	+− (+− = pIC50 <4.00)	+− (+− = pIC50 <4.00)	+− (+− = pIC50 <4.00)	CS(=O)(=O)N1CC=C(c2c[nH]c3c(F)cccc23)CC1 [Compound 100]
+− (+− = pIC50 <4.00)	+ (+ = pIC50 4.00-4.99)	+− (+− = pIC50 <4.00)	+− (+− = pIC50 <4.00)	Cc1[nH]c2ccccc2c1C1CCN(S(=O)(=O)c2ccc([N+](=O)[O-])cc2)CC1 [Compound 25]
+ (+ = pIC50 4.00-4.99)	++ (++ = pIC50 5.00-5.99)	+− (+− = pIC50 <4.00)	+− (+− = pIC50 <4.00)	Cc1ccc2[nH]cc(C3CCN(S(=O)(=O)c4ccccc4OC(F)(F)F)CC3)c2c1 [Compound 36]
++ (++ = pIC50 5.00-5.99)	+− (+− = pIC50 <4.00)	+− (+− = pIC50 <4.00)	+ (+ = pIC50 4.00-4.99)	O=S(=O)(C1CC1)N1CCC(c2c[nH]c3ccccc23)CC1 [Compound 75]
+− (+− = pIC50 <4.00)	+ (+ = pIC50 4.00-4.99)	+− (+− = pIC50 <4.00)	+− (+− = pIC50 <4.00)	Cc1ccc2[nH]cc(C3CCN(S(=O)(=O)c4cccc(Cl)c4C)CC3)c2c1 [Compound 32]
+ (+ = pIC50 4.00-4.99)	+ (+ = pIC50 4.00-4.99)	+− (+− = pIC50 <4.00)	+− (+− = pIC50 <4.00)	O=S(=O)(c1ccccc1Br)N1CCC(c2c[nH]c3ccccc23)CC1 [Compound 21]
+− (+− = pIC50 <4.00)	+− (+− = pIC50 <4.00)	+− (+− = pIC50 <4.00)	+ (+ = pIC50 4.00-4.99)	COc1cccc2c(C3=CCN(S(C)(=O)=O)CC3)c[nH]c12 [Compound 93]
+− (+− = pIC50 <4.00)	+ (+ = pIC50 4.00-4.99)	+− (+− = pIC50 <4.00)	+− (+− = pIC50 <4.00)	Cc1ccc2[nH]cc(C3CCN(S(=O)(=O)c4cc(C(F)(F)F)ccc4C(F)(F)F)CC3)c2c1 [Compound 35]
+ (+ = pIC50 4.00-4.99)	+ (+ = pIC50 4.00-4.99)	+− (+− = pIC50 <4.00)	+− (+− = pIC50 <4.00)	CCn1ncc(S(=O)(=O)N2CCC3(CC2)C(=O)Nc2ccccc23)c1C [Compound 173]
++ (++ = pIC50 5.00-5.99)	+ (+ = pIC50 4.00-4.99)	+− (+− = pIC50 <4.00)	+ (+ = pIC50 4.00-4.99)	CC(=O)N1CC=C(c2c[nH]c3ccc(Cl)cc23)CC1 [Compound 165]
+− (+− = pIC50 <4.00)	++ (++ = pIC50 5.00-5.99)	+− (+− = pIC50 <4.00)	+− (+− = pIC50 <4.00)	CS(=O)(=O)N1CCC(C2C(=O)Nc3cc(F)ccc32)CC1 (centres unmarked) [Compound 178]
+− (+− = pIC50 <4.00)	+ (+ = pIC50 4.00-4.99)	+− (+− = pIC50 <4.00)	+− (+− = pIC50 <4.00)	COc1ccc2[nH]cc(C3CCN(S(=O)(=O)c4ccc(Br)cc4OC(F)(F)F)CC3)c2c1 [Compound 30]
+ (+ = pIC50 4.00-4.99)	+ (+ = pIC50 4.00-4.99)	+− (+− = pIC50 <4.00)	+− (+− = pIC50 <4.00)	Cc1cccc2c(C3CCN(C(=O)c4ccccc4OC(F)(F)F)CC3)c[nH]c12 [Compound 59]
+ (+ = pIC50 4.00-4.99)	+− (+− = pIC50 <4.00)	+− (+− = pIC50 <4.00)	+− (+− = pIC50 <4.00)	CC(C)S(=O)(=O)N1CCC(c2c[nH]c3ccccc23)CC1 [Compound 73]
+ (+ = pIC50 4.00-4.99)	+− (+− = pIC50 <4.00)	+− (+− = pIC50 <4.00)	++ (++ = pIC50 5.00-5.99)	CCNC(=O)N1CCC(c2c[nH]c3ccccc23)CC1 [Compound 68]
+++ (+++ = pIC50 ≥6.00)	+− (+− = pIC50 <4.00)	+− (+− = pIC50 <4.00)	+ (+ = pIC50 4.00-4.99)	CS(=O)(=O)N1CCC(c2c[nH]c3cc(F)ccc23)CC1 [Compound 22]
+− (+− = pIC50 <4.00)	+ (+ = pIC50 4.00-4.99)	+− (+− = pIC50 <4.00)	+− (+− = pIC50 <4.00)	CC(=O)N1CCC(c2c[nH]c3ncccc23)CC1 [Compound 99]
++ (++ = pIC50 5.00-5.99)	+− (+− = pIC50 <4.00)	+− (+− = pIC50 <4.00)	+ (+ = pIC50 4.00-4.99)	COCCS(=O)(=O)N1CCC(c2c[nH]c3ccccc23)CC1 [Compound 74]
+− (+− = pIC50 <4.00)	+ (+ = pIC50 4.00-4.99)	+− (+− = pIC50 <4.00)	+− (+− = pIC50 <4.00)	COc1ccc2[nH]cc(C3CCN(C(=O)C(C)C)CC3)c2c1 [Compound 15]
+ (+ = pIC50 4.00-4.99)	+− (+− = pIC50 <4.00)	+− (+− = pIC50 <4.00)	+ (+ = pIC50 4.00-4.99)	CC(=O)N1CC=C(c2c[nH]c3c(F)cccc23)CC1 [Compound 94]
+− (+− = pIC50 <4.00)	++ (++ = pIC50 5.00-5.99)	+− (+− = pIC50 <4.00)	+− (+− = pIC50 <4.00)	COc1ccc2[nH]cc(C3CCN(S(=O)(=O)c4cc(C(F)(F)F)ccc4C(F)(F)F)CC3)c2c1 [Compound 55]
+− (+− = pIC50 <4.00)	+ (+ = pIC50 4.00-4.99)	+− (+− = pIC50 <4.00)	+− (+− = pIC50 <4.00)	Cc1cccc2c(C3CCN(C(=O)c4cc(Cl)cnc4Cl)CC3)c[nH]c12 [Compound 28]
+ (+ = pIC50 4.00-4.99)	+ (+ = pIC50 4.00-4.99)	+− (+− = pIC50 <4.00)	+− (+− = pIC50 <4.00)	CCOC(=O)N1CCC(c2c[nH]c3ccccc23)CC1 [Compound 66]

SMILES	A172 Kynurenine cell based assay pIC50 [1]	SKOV3 Kynurenine cell based assay pIC50 [2]	hIDO biocehmical assay pIC50 [3]	hTDO biochemical assay pIC50 [4]
FC(F)(F)CN1CCC(c2c[nH]c3ccccc23)CC1 [Compound 10]	+ (+ = pIC50 4.00-4.99)	+− (+− = pIC50 <4.00)	+− (+− = pIC50 <4.00)	+− (+− = pIC50 <4.00)
